The record followed here is patent publication US10550097B2, “Selective 11-beta-hydroxysteroid dehydrogenase type 1 inhibitors” (DSM IP ASSETS B.V., priority 2015, dated 2020).

Marks after values point to notes of the source that are not given here.

Data set [1] has as its system Human skin from abdominal plastic surgery. Description: Ex vivo: total dermal collagen after cortisone and cortisone/inhibitor treatment. The settings on record: day 6; for Dermal collagen: untreated set to 100%. In kind it is cell-based. As to the method: Human skin from abdominal plastic surgery was used. The skin samples were cut in pieces of ˜8×3 mm (ø×thickness) and cultured up to day 6 in an air-liquid interface in a perforated ring of stainless steel in contact with a culture medium (modified Williams' E medium), while renewing the culture medium on day 3. Six skin specimens were used for each test sample. Each test sample (4 μl) was applied topically on top of each piece after cleaning of the surface with a cotton pad, which was subsequently covered with a 6 ø mm delivery membrane, this procedure was repeated daily. After 6 days skin sections were stained with Picrosirius Red histochemical staining, that dyes collagen fibers in purple-red. The papillary dermis was selected for the analysis. The different colors of the pictures were separated by using a deconvolution matrix. After deconvolution only pink-reddish images are used. Within these images the evaluation of dermal collagen was performed by estimating both color intensity and distribution with IMAGE J (NIH) analysis software. Two slides of each skin sample were processed by image acquisition and related analysis (i.e. 12 images for each treatment).

Data set [2] has the same test system. Description: Ex vivo: total dermal collagen III after UV-irradiation. In kind it is cell-based. The settings on record: for Increase versus UV treatment (#2): day 6; for Dermal collagen III: daily UV 6 J/cm^2, day 6, non UV treated set to 100%. How it is done:
Human skin from abdominal plastic surgery classified as “Intermediate” (ITA° angle=42°) was used. The skin samples were cut in pieces of approx. 8×3 mm (0×thickness) and cultured up to day 6 in an air-liquid interface in a perforated ring of stainless steel in contact with a culture medium (modified Williams' E medium, while renewing the culture medium on day 3. Six skin specimens were used for each test sample. Each test sample (4 μl) was topically applied on top of each piece after gentle cleaning of the surface with a cotton pad, which was subsequently covered with a 6 ø mm delivery membrane, this procedure was repeated daily. The samples were irradiated daily with 80% of the Biological effective dose for daylight (i.e. 6 J/cm^2) using an adopted BIO-SUN system (Vilber Lourmat). At day 6 twelve skin sections were immunostained with mouse monoclonal anti-collagen III antibody (Sigma cat #c7805). The papillary dermis was selected for the analysis. The evaluation was performed by estimating both color intensity and distribution with IMAGE J (NIH) analysis software. Two slides of each skin sample have been processed by image acquisition and related analysis (i.e. 12 images for each treatment).

Data set [3] is described as follows: Solubility in cosmetic oils from saturated mixtures (UPLC). The data set is classed as physicochemical. As to conditions: 7 days at room temperature (22° C.); for Solubility in cosmetic oils: Cetiol B: Cetiol B (dibutyl adipate); for Solubility in cosmetic oils: DUB DIS: DUB DIS (diisopropyl sebacate); for Solubility in cosmetic oils: Finsolv EB: Finsolv EB (ethylhexyl benzoate). As to the method: H2O+0.02% TFA (A phase) and MeCN+0.02% TFA (B phase) were used as eluents, with a flow of 0.5 mL/min.
The solubility of selected compounds was tested in the cosmetic oils Cetiol B (INCI name: dibutyl adipate from BASF Personal Care), DUB DIS (INCI name: diisopropyl sebacate from Stearinerie Dubois) and Finsolv EB ((INCI name: ethylhexyl benzoate from Innospec Performance Chemicals).
Samples of about 1 mg of the compounds to be tested were exactly weighted and dissolved in 90% MeCN(aq) to provide 0.1% (1000 ppm) w/v stock solutions. Aliquots of the stock solutions were diluted with 90% MeCN(aq) to provide 10, 100 and 250 ppm diluted solutions, which were tested by UPLC.
For each compound to be tested about 20 mg material were weighted in three microcentrifuge tubes and to each tube about 150 mg of one cosmetic oil were added, as reported in Table 5 below.
After mixing on a Vortex mixer for 5 min, the respective samples were mixed on a waving platform shaker (20 cycles/min) for 7 days at room temperature (22° C.). After that time, the tubes were centrifuged for 5 min at 12000 rpm, 10 μL samples of the supernatant were diluted to 1.00 mL with MeOH, 100 μL of these solutions were diluted to 1.00 mL with 90% MeCN(aq) and subsequently analyzed by UPLC. The compound concentration in each solution was calculated using the respective calibration curve. From the compound concentration in the diluted solutions the concentrations of the respective parent mixtures was calculated accordingly.

Data set [4] concerns the target 11β-HSD1 (Homo sapiens, UniProt P28845). Description: Human keratinocytes assay: 11β-HSD1 activity (cortisone to cortisol). The data set is classed as cell-based. As to conditions: 48 h. How it is done:
Cell Culture: Primary human skin keratinocytes obtained from CelINTec advanced Cell Systems were maintained in CnT-PR medium at 37° C. in a humidified 5% CO2-air atmosphere. Cells were subcultured before reaching confluence.
Assessment of 11β-HSD1 activity: Human primary keratinocytes were pre-cultured in complete culture media (CnT-PR, CelINTec) to 90% of confluence. Subsequently cells were washed twice with PBS-buffer to remove remaining corticosteroids and media were exchanged to custom made hydrocortisone-free media.
Calculation: % remaining 11β-HSD1 activity=(cortisol-level with inhibitor/cortisol-level without inhibitor)*100%

Where [5] appears, read: 10 μM in DMSO, cortisone/inhibitor treatment, topical daily.
The mark [6] stands for this setting: 100 μM in DMSO, cortisone/inhibitor treatment, topical daily.
Where [7] appears, read: 200 μM in DMSO, cortisone/inhibitor treatment, topical daily.

Chain of 11β-HSD1 (P28845 whole entry): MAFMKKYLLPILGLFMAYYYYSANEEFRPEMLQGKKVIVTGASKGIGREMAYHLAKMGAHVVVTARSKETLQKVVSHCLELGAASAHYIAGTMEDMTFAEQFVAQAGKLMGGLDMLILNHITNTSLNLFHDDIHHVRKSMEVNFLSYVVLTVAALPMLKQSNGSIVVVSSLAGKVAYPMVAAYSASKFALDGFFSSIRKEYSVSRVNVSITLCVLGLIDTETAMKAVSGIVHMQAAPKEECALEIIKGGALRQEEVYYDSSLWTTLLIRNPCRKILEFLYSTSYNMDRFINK

Turning to `Cc1ccc(-c2cccc(C(=O)N3CCC(C)CC3)c2)cn1` [II-a, (4-methylpiperidin-1-yl)(3-(6-methylpyridin-3-yl)phenyl)methanone], the Dermal collagen in data set [1] (setting [5]) is 94%; in data set [1] (setting [6]), 108%; in data set [1] (setting [7]) it was 114%. In addition, the “Increase versus cortisone (#2)” value is given as “+22%” in data set [1] (10 μM in DMSO), “+40%” in data set [1] (100 μM in DMSO) and “+48%” in data set [1] (200 μM in DMSO). Moreover, the “Increase versus UV treatment (#2)” value in data set [2] (10 μM in DMSO) is on record as “+5%”; in data set [2] (100 μM in DMSO), “+43%”. Moreover, the “Dermal collagen III” value in data set [2] (10 μM in DMSO) is recorded as 84%; in data set [2] (100 μM in DMSO), 114%. Further, in data set [3], the “Solubility in cosmetic oils: Cetiol B” value is reported as ≥ 13.2%^b. In data set [3], the “Solubility in cosmetic oils: DUB DIS” value is ≥ 10.6%^b. For the same compound, the “Solubility in cosmetic oils: Finsolv EB” value in data set [3] is given as ≥ 10.2%^b.
In the case of `CC1CCN(C(=O)c2cccc(-c3ccccc3Cl)c2)CC1` [II-e, (2′-chloro-[1,1′-biphenyl]-3-yl)(4-methylpiperidin-1-yl)methanone], in data set [4], the remaining activity at 0.001 µM is 85%, the remaining activity at 0.00316 µM stood at 70%, the remaining activity at 0.01 µM was determined as 50% and the remaining activity at 0.03162 µM is 21%. Moreover, the remaining activity at 0.1 µM in data set [4] turned out to be 4%.
In data set [4], `Cc1ccc(-c2cccc(C(=O)N3CCCC(C)(C)C3)c2)cc1F` [II-h, (3,3-dimethylpiperidin-1-yl)(3′-fluoro-4′-methyl-[1,1′-biphenyl]-3-yl)methanone] displayed a remaining activity at 40 pM of 74%, a remaining activity at 0.0001 µM of 45%, a remaining activity at 0.00032 µM of 24% and a remaining activity at 0.001 µM of 10%.
As for `CC1CCN(C(=O)c2cccc(-c3cccc(C(N)=O)c3)c2)CC1` [II-k, 3′-(4-methylpiperidine-1-carbonyl)-[1,1′-biphenyl]-3-carboxamide], in data set [3], the “Solubility in cosmetic oils: Cetiol B” value is listed as 3.0%, the “Solubility in cosmetic oils: DUB DIS” value is listed as 2.4% and the “Solubility in cosmetic oils: Finsolv EB” value is given as 3.4%.
In data set [4], `Cc1ccc(-c2cccc(C(=O)N3CCOC(C)(C)C3)c2)cc1F` [III-a, (2,2-dimethylmorpholino) (3′-fluoro-4′-methyl-[1,1′-biphenyl]-3-yl)methanone] yielded a remaining activity at 0.00032 µM of 70%, a remaining activity at 0.001 µM of 55%, a remaining activity at 0.00316 µM of 37% and a remaining activity at 0.01 µM of 11%. In data set [4], the remaining activity at 0.03162 µM turned out to be 3% and the remaining activity at 0.1 µM came to 0%.
As to `Cc1ccc(-c2cccc(C(=O)N3CC(C)OC(C)C3)c2)cc1F` (stereo not shown) [III-b, (2,6-dimethylmorpholino) (3′-fluoro-4′-methyl-[1,1′-biphenyl]-3-yl)methanone], in data set [3], the “Solubility in cosmetic oils: Cetiol B” value stood at 10.0%, the “Solubility in cosmetic oils: DUB DIS” value is on record as 4.3% and the “Solubility in cosmetic oils: Finsolv EB” value is given as 2.6%.
In data set [4], `Cc1ccc(-c2cccc(C(=O)N3CCCCCC3)c2)cc1F` [IV-a, azepan-1-yl(3′-fluoro-4′-methyl-[1,1′-biphenyl]-3-yl)methanone] returned a remaining activity at 0.001 µM of 74%, a remaining activity at 0.00316 µM of 45%, a remaining activity at 0.01 µM of 22% and a remaining activity at 0.03162 µM of 8%. In addition, the remaining activity at 0.1 µM in data set [4] was 2%. In data set [1] (setting [5]), this compound returned a Dermal collagen of 96%. In addition, the “Increase versus cortisone (#2)” value in data set [1] (10 μM in DMSO) was “+25%”. The Dermal collagen in data set [1] (setting [6]) is reported as 97%. Further, the “Increase versus cortisone (#2)” value in data set [1] (100 μM in DMSO) was “+26%”. In data set [1] (setting [7]), this compound registered a Dermal collagen of 86%. For the same compound, the “Increase versus cortisone (#2)” value in data set [1] (200 μM in DMSO) is “+12%”. In addition, in data set [2] (10 μM in DMSO), the “Increase versus UV treatment (#2)” value was “+13%” and the “Dermal collagen III” value is recorded as 90%. In addition, in data set [2] (100 μM in DMSO), the “Increase versus UV treatment (#2)” value was “+21%” and the “Dermal collagen III” value was 97%.
In data set [4], `Cc1ccc(-c2cccc(C(=O)N3CCCCCC3)c2)cc1` [IV-c, azepan-1-yl(4′-methyl-[1,1′-biphenyl]-3-yl)methanone] registered a remaining activity at 0.001 µM of 70%, a remaining activity at 0.00316 µM of 42%, a remaining activity at 0.01 µM of 23% and a remaining activity at 0.03162 µM of 9%. In data set [4], this compound gave a remaining activity at 0.1 µM of 3%. Further, in data set [3], the “Solubility in cosmetic oils: Cetiol B” value stood at 3.3%, the “Solubility in cosmetic oils: DUB DIS” value turned out to be 2.6% and the “Solubility in cosmetic oils: Finsolv EB” value worked out at 4.0%.
In data set [4], `O=C(c1cccc(-c2ccccc2)c1)N1CCCCCC1` [IV-f, [1,1′-biphenyl]-3-yl(azepan-1-yl)methanone] yielded a remaining activity at 0.001 µM of 83%, a remaining activity at 0.00316 µM of 73%, a remaining activity at 0.01 µM of 52% and a remaining activity at 0.03162 µM of 28%. In data set [4], this compound came in with a remaining activity at 0.1 µM of 10%. The Dermal collagen in data set [1] (setting [5]) came to 103%. Moreover, the “Increase versus cortisone (#2)” value in data set [1] (10 μM in DMSO) was “+34%”. The same compound yielded a Dermal collagen in data set [1] (setting [6]) of 103%. In addition, in data set [1] (100 μM in DMSO), the “Increase versus cortisone (#2)” value was “+34%”. The Dermal collagen in data set [1] (setting [7]) is listed as 93%. Further, in data set [1] (200 μM in DMSO), the “Increase versus cortisone (#2)” value is listed as “+21%”. In data set [2] (10 μM in DMSO), the “Increase versus UV treatment (#2)” value is on record as “+6%” and the “Dermal collagen III” value stood at 85%. Further, in data set [2] (100 μM in DMSO), the “Increase versus UV treatment (#2)” value was “+33%” and the “Dermal collagen III” value was 106%. In data set [3], the “Solubility in cosmetic oils: Cetiol B” value is given as ≥ 10.6%^b, the “Solubility in cosmetic oils: DUB DIS” value is on record as ≥ 10.2%^b and the “Solubility in cosmetic oils: Finsolv EB” value is given as ≥ 10.3%^b.
In data set [1] (cortisone alone 0.1 μM in DMSO), `C[C@]12CCC(=O)C=C1CC[C@@H]1[C@@H]2C(=O)C[C@@]2(C)[C@H]1CC[C@]2(O)C(=O)CO` [cortisone, reference compound] came in with a Dermal collagen of 77%.
